Among the data in patent publication US12275729B2 (Merck Sharp & Dohme LLC, priority 2017, dated 2025) are IC50 values, retold here.

The IC50 is the concentration needed to halve the response being measured.

Chain of IDO1 (P14902 whole entry): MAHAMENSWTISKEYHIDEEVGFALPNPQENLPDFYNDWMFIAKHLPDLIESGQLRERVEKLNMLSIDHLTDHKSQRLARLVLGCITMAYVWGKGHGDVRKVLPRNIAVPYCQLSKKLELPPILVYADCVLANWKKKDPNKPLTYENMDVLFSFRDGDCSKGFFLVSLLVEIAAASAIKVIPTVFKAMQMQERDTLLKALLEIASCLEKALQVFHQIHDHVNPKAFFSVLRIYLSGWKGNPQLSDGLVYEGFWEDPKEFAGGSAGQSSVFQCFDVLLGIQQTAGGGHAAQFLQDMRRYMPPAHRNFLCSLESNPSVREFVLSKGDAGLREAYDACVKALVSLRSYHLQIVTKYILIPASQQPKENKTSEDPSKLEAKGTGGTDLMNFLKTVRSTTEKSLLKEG

One assay has as its target IDO1 (Homo sapiens, UniProt P14902). As to the kind of experiment: IDO1 Cellular Assay in HeLa Cells Stimulated with IFNγ. It is filed as cell-based. To be noted: about 48 hours, read-out: Hela IC50. The procedure: Biological Assays IDO1 Cellular Assay in HeLa Cells Stimulated with IFNγ
HeLa cells were cultured in complete HeLa culture medium (90% EMEM, 10% heat-inactivated fetal bovine serum) and expanded to about 1×10^9 cells. The cells were then collected and frozen down at 1×10^7 cells/vial in 1 mL frozen medium (90% complete HeLa culture medium, 10% DMSO).
Compounds to be tested were serially diluted in ten 3-fold steps in DMSO starting from 10 mM DMSO stocks in Echo low volume plate(s).
Frozen HeLa cells were thawed and transferred into HeLa assay medium (99% complete HeLa culture medium, 1% Pen/Strep) with 20 mL medium/vial of cells. The cells were spun down at 250 g in a table top centrifuge for 5 min and suspended in same volume of HeLa assay medium. The cells were then counted and adjusted to a density of 2×10^5 cells/mL in HeLa assay medium. Sterile L-tryptophan were added to the cells with final concentration of 300 uM L-tryptophan. A small aliquot (2 mL/plate) of HeLa cells were set aside and were not treated with IFNγ, to serve as the Max-E control.
HeLa cells with and without IFNγ were dispensed to the respective wells of 384-well assay plates containing the compounds. The plates were incubated for about 48 hours at a 37° C., 5% CO2 incubator. Afterwards, 12 μL of 0.5 M methyl isonipecotate in dimethyl sulfoxide were added into each well and the plates were sealed and incubated at 37° C. without CO2 overnight. The plates were centrifuged for 1 min at 200×g. The resulting fluorescence was measured in a Spectramax plate reader (Molecular Devices) with a 400 nm excitation filter and a 510 nm emission filter.
Potencies were calculated by […] least squares fit to the four parameter logistic IC50 equation.
Turning to `C[C@@H](NC(=O)c1ccc(F)cc1)c1ccc2c(n1)CCCN2C(=O)C1CC1(F)F` (stereo partly drawn) [Example 133, N-{(1R)-1-[5-(2,2-difluorocyclopropane-1-carbonyl)-5,6,7,8-tetrahydro-1,5-naphthyridin-2-yl]ethyl}-4-fluorobenzamide], the concentration for half-maximal inhibition (IC50) stood at 63.6 nM. Same read-out and setting: in the case of `COC(=O)N1CCCc2cc(C3(C(=O)Nc4ccc(F)cn4)CCC3)ccc21` [Example 206, methyl 6-{1-[(5-fluoropyridin-2-yl)carbamoyl]cyclobutyl}-3,4-dihydroquinoline-1(2H)-carboxylate] it was 1.5 nM; in that of `CC(NC(=O)c1ccc(F)cc1)c1ccc2c(n1)CCCN2C(=O)c1ncccc1F` (stereo not drawn) [Example 283, 2-(1-(4-fluorobenzamido)ethyl)-5-(3-fluoropicolinoyl)-5,6,7,8-tetrahydro-1,5-naphthyridin-1-ium 2,2,2-trifluoroacetate], 2.2 nM. With `O=C(NC1(c2ccc3c(n2)CCCN3C(=O)c2cccc(Cl)c2)CC1)c1ccc(F)cc1` [Example 171, N-{1-[5-(3-chlorobenzene-1-carbonyl)-5,6,7,8-tetrahydro-1,5-naphthyridin-2-yl]cyclopropyl}-4-fluorobenzamide], the IC50 is 2.3 nM. Still for that read-out and setting: the figure for `COC(=O)N1CCCc2nc(C3(NC(=O)c4ccc(F)cc4)CC3)ccc21` [Example 215, methyl 6-{1-[(4-fluorobenzene-1-carbonyl)amino]cyclopropyl}-3,4-dihydro-1,5-naphthyridine-1(2H)-carboxylate] is 57 nM; for `O=C(NC1(c2ccc3c(n2)CCCN3C(=O)NC2CC2)CC1)c1ccc(F)cc1` [Example 214, N-cyclopropyl-6-{1-[(4-fluorobenzene-1-carbonyl)amino]cyclopropyl}-3,4-dihydro-1,5-naphthyridine-1(2H)-carboxamide] it is 159 nM; for `CC(C(=O)Nc1ccc(F)cc1)c1ccc2c(c1)CCCN2C(=O)C1CCCCO1` (stereo not drawn) [Example 37, N-(4-fluorophenyl)-2-[1-(oxane-2-carbonyl)-1,2,3,4-tetrahydroquinolin-6-yl]propanamide] it is 4.8 nM. Same read-out and setting: the figure for `COC(C(=O)Nc1ccc(F)cn1)c1ccc2c(c1)CCCN2C(=O)C1CC1` (single isomer, unassigned) [Example 157, 2-(1-(cyclopropanecarbonyl)-1,2,3,4-tetrahydroquinolin-6-yl)-N-(5-fluoropyridin-2-yl)-2-methoxyacetamide] is 154 nM. Still for that read-out and setting: the figure for `O=C([C@H]1CCCO1)N1CCCc2nc(C3(C(=O)Nc4ccc(F)cc4)CCC3)ccc21` [Example 180, N-(4-fluorophenyl)-1-{5-[(2R)-oxolane-2-carbonyl]-5,6,7,8-tetrahydro-1,5-naphthyiridin-2-yl}cyclobutane-1-carboxamide] is 1.9 nM; for `O=C(Nc1ccc(F)cc1)C(c1ccc2c(n1)CCCN2C(=O)C1CC1)C1CC1` (stereo not drawn) [Example 260, 2-(5-(cyclopropanecarbonyl)-5,6,7,8-tetrahydro-1,5-naphthyridin-2-yl)-2-cyclopropyl-N-(4-fluorophenyl)acetamide] it is 34 nM; for `CC(NC(=O)c1ccc(F)cc1)c1ccc2c(n1)C(F)CCN2C(=O)C1CC1` (single isomer, unassigned) [Example 201, N-(1-(5-(cyclopropanecarbonyl)-8-fluoro-5,6,7,8-tetrahydro-1,5-naphthyridin-2-yl)ethyl)-4-fluorobenzamide] it is 186 nM. As for `Cc1ccnc(C(=O)N2CCCc3cc(C4(C(=O)Nc5ccc(F)cn5)CCC4)ccc32)n1` [Example 118, N-(5-fluoropyridin-2-yl)-1-[1-(4-methylpyrimidine-2-carbonyl)-1,2,3,4-tetrahydroquinolin-6-yl]cyclobutane-1-carboxamide], the IC50 turned out to be 1.5 nM.

Turning to `CO[C@H]1C[C@H](C(=O)N2CCCc3cc([C@H](C)C(=O)Nc4ccc(F)cc4)ccc32)C1` [Example 86, (2S)-N-(4-fluorophenyl)-2-[1-(trans-3-methoxycyclobutane-1-carbonyl)-1,2,3,4-tetrahydroquinolin-6-yl]propanamide], the IC50 was found to be 17.6 nM. On the same count and under the same terms, the figure for `CC(NC(=O)c1ccc(F)cc1)c1ccc2c(n1)CCCN2C(=O)c1cccc(Cl)c1Cl` (stereo not drawn) [Example 148, N-{1-[5-(2,3-dichlorobenzene-1-carbonyl)-5,6,7,8-tetrahydro-1,5-naphthyridin-2-yl]ethyl}-4-fluorobenzamide] is 2.5 nM; for `O=C(N1CCCC1)N1CCCc2cc(C3(C(=O)Nc4ccc(F)cn4)CCC3)ccc21` [Example 103, N-(5-fluoropyridin-2-yl)-1-[1-(pyrrolidine-1-carbonyl)-1,2,3,4-tetrahydroquinolin-6-yl]cyclobutane-1-carboxamide] it is 76.7 nM.

`CC(C)C(C(=O)Nc1ccc(F)cc1)c1ccc2c(n1)CCCN2C(=O)C1CC1` (stereo not drawn) [Example 264, 2-(5-(cyclopropanecarbonyl)-5,6,7,8-tetrahydro-1,5-naphthyridin-2-yl)-N-(4-fluorophenyl)-3-methylbutanamide]: the IC50 was found to be 30.9 nM.

Consider `CC(C(=O)Nc1ccc(F)cc1)c1ccc2c(c1)CCCN2C1COC1` (stereo not drawn) [Example 231, N-(4-fluorophenyl)-2-[1-(oxetan-3-yl)-1,2,3,4-tetrahydroquinolin-6-yl]propanamide], for which the IC50 was found to be 91.1 nM. On the same count and under the same terms, the figure for `Cc1nc(C(=O)N2CCCc3cc(C(C)C(=O)Nc4ccc(F)cc4)ccc32)co1` (stereo not drawn) [Example 45, N-(4-fluorophenyl)-2-[1-(2-methyl-1,3-oxazole-4-carbonyl)-1,2,3,4-tetrahydroquinolin-6-yl]propanamide] is 5.9 nM; for `CCn1ccc(C(=O)NCc2ccc3c(c2)CCCN3C(=O)c2cccc(Cl)c2)n1` [Example 24] it is 99.8 nM.

`CC(NC(=O)c1ccc(F)cc1)c1ccc2c(n1)C(F)(F)CCN2C(=O)C1CC1` (stereo not drawn) [Example 193, N-(1-(5-(cyclopropanecarbonyl)-8,8-difluoro-5,6,7,8-tetrahydro-1,5-naphthyridin-2-yl)ethyl)-4-fluorobenzamide]: the IC50 worked out at 5290 nM. Same read-out and setting: the figure for `O=C(C1CCO1)N1CCCc2nc(C3(C(=O)Nc4ccc(F)cc4)CCC3)ccc21` (stereo not drawn) [Example 182, N-(4-fluorophenyl)-1-[5-(oxetane-2-carbonyl)-5,6,7,8-tetrahydro-1,5-naphthyridin-2-yl]cyclobutane-1-carboxamide] is 5.2 nM.

Take `CCc1nc(C(=O)NCc2ccc3c(c2)CCCN3C(=O)c2cccc(Cl)c2)co1` [Example 23, N-{[1-(3-chlorobenzene-1-carbonyl)-1,2,3,4-tetrahydroquinolin-6-yl]methyl}-2-ethyl-1,3-oxazole-4-carboxamide]: the IC50 came to 77.6 nM. Same read-out and setting: in the case of `O=C(C1CCCCO1)N1CCCc2nc(C3(C(=O)Nc4ccc(F)cc4)CCC3)ccc21` (single isomer, unassigned) [Example 179, N-(4-fluorophenyl)-1-[5-(oxane-2-carbonyl)-5,6,7,8-tetrahydro-1,5-naphthyridin-2-yl]cyclobutane-1-carboxamide] it was 1.8 nM; in that of `Cc1nccc(N2CCCc3nc(C4(NC(=O)c5ccc(Cl)cc5)CC4)ccc32)n1` [Example 299, 4-chloro-N-(1-(5-(2-methylpyrimidin-4-yl)-5,6,7,8-tetrahydro-1,5-naphthyridin-2-yl)cyclopropyl)benzamide], 0.74 nM. Still for that read-out and setting: in the case of `COc1ccnc(N2CCCc3nc(C4(NC(=O)c5ccc(F)cc5)CC4)ccc32)n1` [Example 298, 4-fluoro-N-(1-(5-(4-methoxypyrimidin-2-yl)-5,6,7,8-tetrahydro-1,5-naphthyridin-2-yl)cyclopropyl)benzamide] it was 14.5 nM. On to `C[C@@H](NC(=O)c1ccc(F)cc1)c1ccc2c(n1)CCCN2C(=O)[C@H]1CC1(F)F` (single isomer, unassigned) [Example 134], for which the IC50 came out at 24 nM.

Staying with this assay, now noted: read-out: Hela IC50.
With `COc1cccc(C(=O)NC(C)c2ccc3c(n2)CCCN3C(=O)OC2CC2)c1` (stereo not drawn) [Example 336, cyclopropyl 6-(1-(3-methoxybenzamido)ethyl)-3,4-dihydro-1,5-naphthyridine-1(2H)-carboxylate], the IC50 was 973 nM. Still for that read-out and setting: in the case of `Cc1nc(N2CCCc3nc(C(C)NC(=O)c4ccc(Cl)cc4)ccc32)c2cc(Cl)ccc2n1` (stereo not drawn) [Example 359, 5-(6-chloro-2-methylquinazolin-4-yl)-2-(1-(4-chlorobenzamido)ethyl)-5,6,7,8-tetrahydro-1,5-naphthyridin-1-ium 2,2,2-trifluoroacetate] it was 25 nM; in that of `Cc1nc(N2CCCc3nc(C(C)NC(=O)c4ccc(Cl)cc4)ccc32)c2cc(F)ccc2n1` (stereo not drawn) [Example 360, 2-(1-(4-chlorobenzamido)ethyl)-5-(6-fluoro-2-methylquinazolin-4-yl)-5,6,7,8-tetrahydro-1,5-naphthyridin-1-ium 2,2,2-trifluoroacetate], 25.6 nM. For `Cc1cc(N2CCCc3nc(C(C)NC(=O)c4ccc(Cl)cc4)ccc32)nc(C(F)(F)F)n1` (stereo not drawn) [Example 349, 4-chloro-N-(1-(5-(6-methyl-2-(trifluoromethyl)pyrimidin-4-yl)-5,6,7,8-tetrahydro-1,5-naphthyridin-2-yl)ethyl)benzamide], the IC50 was determined as 9.71 nM.
